In patent US20150297718A1, “ION[…] OF CATIONIC PRODRUGS FOR TOPICAL TREATMENT OF MUSCU[…] SKIN DISEASES” (priority 2014, published 2015):
Counter-ions that a name gives are not always drawn.

How the values were obtained:
[1] = In-vitro side-by-side diffusion cell study, iontophoresis across human epidermis skin; type: in vitro ADME
From the text: The efficiency in anode iontophoresis delivery of KCE and that in cathode iontophoresis delivery of ketoprofen were compared with an in-vitro side-by-side diffusion cell study. […] The human cadaver epidermis skin was sandwiched between the two half cells with stratum corneum face the donor chamber. For anode iontophoresis of KCE, KCE chloride salt solution (26.6 μmol/ml) was placed in the donor cell. For cathode iontophoresis of ketoprofen (Kt), […] solution (26.6 μmol/ml) was placed in the donor cell. Phosphate buffer solution (0.15 M at pH 7.4) was placed in the receiver chamber. Constant current 0.2 mA was applied to the diffusion cell. The amount of drug penetrated through the skin was collected in the receive chamber and analyzed with a HPLC. The anode iontophoresis of the cationic prodrug KCE delivered 4 times more drug across the skin than that delivered by the cathode iontophoresis of ketoprofen (see FIG. 4A) from the in-vitro study.
Anode iontophoresis of the cationic ketoprofen prodrug KCE (26.6 μmol/ml) with the presence of phenylephrine (PE) (4.9 μmol/ml) in solution was evaluated with an in-vitro diffusion cell study across a human epidermis skin.

[2] = Passive penetration across human epidermis skin in side-by-side diffusion cells; conditions: no electric current, 6 hours
From the text: The efficiency in anode iontophoresis delivery of KCE and that in cathode iontophoresis delivery of ketoprofen were compared with an in-vitro side-by-side diffusion cell study. […] The human cadaver epidermis skin was sandwiched between the two half cells with stratum corneum face the donor chamber. […] Phosphate buffer solution (0.15 M at pH 7.4) was placed in the receiver chamber. […]

[3] = In vivo rat study of iontophoresis delivery on dorsal back skin: tissue and plasma drug concentrations; conditions: for Drug concentration in the skin: delivered drug (prodrug or ketoprofen); for Concentration of ketoprofen converted from the prodrug in the skin: number in bracket
Method: (§1) The anode iontophoresis of ketoprofen cationic prodrugs KCE, KME and cathode iontophoresis of ketoprofen were compared with an in vivo rat study for evaluation of drug penetration into deep tissues. […] A prodrug solution was loaded in the cell. A constant current of 0.4 mA/cm^2 for iontophoresis was applied for 6 hours. At the end of the iontophoresis delivery, the rats were euthanized. The skin of the application site (under the glass cell) was washed with water, tape stripped once to remove residue drug on skin, and then dissected with a biopsy punch for the tissue layers: epidermis and dermis layer (depth 0-3 mm), subcutaneous tissue (fat pad) (3-4 mm), shallow muscle layer (4-6 mm), and deep muscle (6-10 mm). The tissues from the contralateral site were dissected with the same method. In addition, the plasma blood samples were obtained right before the experiment (time 0) and each hour during the experiment. The drug concentrations in the tissue and plasma samples were analyzed with a HPLC.
as §1, with “cationic prodrugs and cathode” for “cationic prodrugs KCE, KME and cathode”, “ketoprofen were also compared with” for “ketoprofen were compared with”, “rat study at 0.4 mA/cm^2 for a shorter duration of 2 hours for evaluation” for “rat study for evaluation”, “applied for 2 hours. At” for “applied for 6 hours. At”
as §1, with “cationic prodrugs and cathode” for “cationic prodrugs KCE, KME and cathode”, “ketoprofen were also compared with” for “ketoprofen were compared with”, “rat study at 0.057 mA/cm^2 for a duration of 6 hours for evaluation” for “rat study for evaluation”, “current of 0.057 mA/cm^2 for” for “current of 0.4 mA/cm^2 for”, “with a HPLC” for “with a HPLC.”
KPE is a prodrug of ketoprofen but with two methyl groups on the nitrogen atom, instead of three methyl groups on the nitrogen atom like KCE and KME. KPE can be presented as a hydrochloride salt. […] Anode iontophoresis delivery of KPE in this aqueous solution at 0.4 mA/cm^2 for a shorter duration of 2 hour was also conducted with the in vivo rat study.

melanoma cell (A375) = assay: In vitro cell viability assay on melanoma cell growth; type: cell-based; conditions: A375 cells, read-out: 50% inhibition concentration (IC50) on melanoma cell (A375) growth
From the text: The drug concentrations in the skin after the iontophoresis delivery of those prodrugs or their parent drug ketoprofen from different iontophoresis conditions are summarized in Table 2. The high drug concentration in the skin can be used for treatment of skin diseases including skin cancers such as melanoma. […] The ketoprofen concentrations in the skin from the iontophoresis delivery was not higher than its IC50 against the melanoma cell growth, but the KCE and KME concentrations in the skin from the anode iontophoresis delivery were higher than their IC50 against the melanoma cell growth. Thus, the anode iontophoresis of the prodrugs can provide high drug accumulation in the skin, and such high drug accumulation in the skin can be used for skin disease treatment.

[4] = Iontophoresis delivery into hairless rat knee joint: tissue and plasma drug concentrations; type: in vivo; conditions: 0.4 mA/cm^2 for 20 min; 0.5-hour and 2-hour time points
Method: Hairless rats were anaesthetized with isoflurane. A rubber disk shape applicator with a sponge that can hold 0.5 ml of the drug solution was used and a button Ag/AgCl electrode was used as current driving electrode. The delivery area is about 1.2 cm^2. After drug solution was loaded into the sponge, the applicator was placed on the knee cap skin and applied an electric current at 0.4 mA/cm^2 for 20 min. A return electrode was attached to the upper tail of the rat. After that, the skin was cleaned thoroughly with wet Kim wipes. The tissues (skin, muscle and joint) at the application site knee and also the contralateral site knee were collected at 30 min, 2 hr, 4 hr or 6 hr from the start of iontophoresis delivery. Three animals were used for each time point. Blood samples were also collected at appropriate time points. The tissue and blood samples were stored at −80° C. until further processing.

[5] = tested on: knee arthritis pain model (monosodium iodoacetate); assay: MIA knee osteoarthritis rat model treated with iontophoresis; type: in vivo; conditions: 0.4 mA/cm^2 for 20 min on days 1, 2, 3 after MIA; versus iontophoresis of NaCl
Method: A knee arthritis pain model was established by injection of 50 μl of 60 mg/ml monosodium iodoacetate (MIA) into the left hind knee joint of 12 hairless rats, and they were divided into three groups. The knee diameters of both hind knees were measured. The difference in knee diameters between the left knee and right knee was used as the indicator of the swelling (or inflammation) of the left knee. In addition, the weight bearing of each hind limb was also measured with a Linton incapacitance tester. The percentage of the weight bearing by the left leg was used as an indicator of the pain level in the knee. At 1 day, 2 days, 3 days after the injection of MIA, the left knee of the rats in group 1 was treated with iontophoresis of NaCl to the left hind knee at 0.4 mA/cm^2 for 20 min, group 2 treated with iontophoresis of Kt to the left hind knee at 0.4 mA/cm^2 for 20 min, and group 3 treated with iontophoresis of KCE to the left hind knee at 0.4 mA/cm^2 for 20 min. The knee diameter and weight bearing were measured at day 0 before the MIA injection, and also at day 1, 2, and 3 after the MIA injection but before the iontophoresis treatment. They were also measured at day 4, 6, and 10 after the MIA injection.

[6] = Bioconversion of ketoprofen prodrugs in fresh rat plasma
[7] = Bioconversion of ketoprofen prodrugs in fresh human plasma
[8] = iontophoresis 0.057 mA/cm^2 for 6 hrs
[9] = iontophoresis 0.4 mA/cm^2 for 2 hrs
[10] = iontophoresis 0.4 mA/cm^2 for 6 hrs

CC(C(=O)OCC[N+](C)(C)C)c1cccc(C(=O)c2ccccc2)c1 (stereo not shown) [KCE, Ketoprofen choline ester chloride salt]
Drug delivered across the skin relative to cathode iontophoresis of ketoprofen ([1]; 0.2 mA constant current, 26.6 μmol/ml donor, anode iontophoresis): 4 times
Amount penetrated across the skin by anode iontophoresis, KCE alone versus KCE with phenylephrine ([1]; KCE 26.6 μmol/ml, PE 4.9 μmol/ml, 0.2 mA): slightly higher than that with the PE in the solution
Passive penetration across human epidermis skin [2]: Almost no KCE chloride was penetrated across the human skin in 6 hours
Plasma and contralateral tissue drug concentration ([3]; 0.057 mA/cm^2 for 6 hours): initial lower plasma concentration, but reached a plasma concentration similar to that from iontophoresis of Kt at 6 hours
Tissue drug concentrations / direct penetration at the application site ([3]; 0.057 mA/cm^2 for 6 hours): direct penetration into deeper tissues that is up into the shallow muscles
Plasma drug concentration ([3]; 0.4 mA/cm^2 for 2 hours): lower than that from iontophoresis of ketoprofen
Tissue drug concentrations / direct penetration at the application site ([3]; 0.4 mA/cm^2 for 2 hours): direct penetration into deeper tissues up into the deep muscles
Drug in tissues at the contralateral site ([3]; 0.4 mA/cm^2 for 6 hours): No prodrug was detected in the contralateral tissues
Plasma drug concentration ([3]; 0.4 mA/cm^2 for 6 hours): much lower than that from the iontophoresis of Kt
Tissue drug concentrations / direct penetration at the application site ([3]; 0.4 mA/cm^2 for 6 hours): much higher concentration in the drug application site than the Kt concentration in the contralateral site
Drug concentration in the skin [3, 8]: 887 μmol per kilogram of skin
Concentration of ketoprofen converted from the prodrug in the skin [3, 8]: 905 μmol per kilogram of skin
Drug concentration in the skin [3, 9]: 6719 μmol per kilogram of skin
Concentration of ketoprofen converted from the prodrug in the skin [3, 9]: 2996 μmol per kilogram of skin
Drug concentration in the skin [3, 10]: 25869 μmol per kilogram of skin
Concentration of ketoprofen converted from the prodrug in the skin [3, 10]: 13527 μmol per kilogram of skin
IC50 (melanoma cell (A375)): 2650 µM
Drug concentrations in the knee joint and surrounding muscle tissues [4]: higher drug concentrations in the knee joint and also surrounding muscle tissues than those from the cathode iontophoresis of Kt
Knee swelling (knee diameter difference left vs right) [5]: significant reduction of the knee swelling
Weight bearing of the left leg (pain indicator) [5]: significant improvement in the weight bearing of the left leg
Bioconversion (half life) in rat plasma [6]: 8.6 min
Bioconversion (half life) in human plasma [7]: <2 min
